Measurements published in patent EP0358766A1, “METHOD OF STERILIZING PLANT ANTHERS” (VSESOJUZNY NAUCHNO-ISSLEDOVATELSKY INST. SELSKOKHOZYAISTV. …, priority 1988, dated 1989).

Key:
[1] = test system: Winterweizens Sorte Mironowskaya 808; assay: Field test of gametocidal activity (anther sterilisation), winter wheat Mironowskaya 808; assay type: in vivo, Weizen; conditions: Mironowskaya 808, period V of organogenesis, 1% aqueous emulsion, 10 kg/ha
[2] = test system: Sommerweizens Sorte Moskowskaya 35; assay: Field test of gametocidal activity, spring wheat Moskowskaya 35; assay type: in vivo, Weizen; conditions: Moskowskaya 35, period V, 1% aqueous emulsion, 6 kg/ha in 600 l water
[3] = test system: diploidem Roggen Chulpan; assay: Field test of gametocidal activity, diploid rye Chulpan; assay type: in vivo; conditions: Chulpan, period V, 1% aqueous emulsion, 10 kg/ha
[4] = test system: diploidem Roggen Kharkovskaya 55; assay: Field test of gametocidal activity, diploid rye Kharkovskaya 55; assay type: in vivo; conditions: Kharkovskaya 55, period V, 1% aqueous emulsion, 6 kg/ha in 600 l water
From the text: (§1) Die gametozide Aktivität der erfindungsgemäßen Sterilisationsmittel war in Feldversuchen in verschiedenen bodenklimatischen Zonen mit Teilstücken von 10 m^2 Größe in dreibis viermaliger Wiederholung festgestellt. Jedes Sterilisationsmittel wurde mindenstens 5 Jahre lang geprüft.
(§2) Die Entwicklung der Perioden der Organogenese wird zytologisch überwacht. Die Behandlung von Pflanzen mit dem Sterilisationsmittel erfolgt am Anfang der fünften Periode der Organogenese nach Kupermann.
(§3) Mit dem Ährenschieben verwirklicht man die Isolierung von Hauptähren und anderen Stockwerken in Pergametbeuteln. Bei Weizen und Tritikale werden Einzelisolatoren benutzt. Bei Roggen schließt man je 1 Ähre von […] verschiedenen nebeneinander befindlichen Pflanzen unter einen gemeinsamen Isolator ein. Bei Hirse wird jede Rispe getrennt isoliert. Der Sterilitätsprozentsatz (X) für Weizen, Roggen, Tritikale und Hirse wird nach der Formel [formula] ermittelt.
(§4) Die Kornzahl in nicht isolierten Ähren von Kontrollpflanzen wird bedingt für 100 % Ansetzen bei freier Bestäubung angenommen.
(§5) Um zuverlässige Angaben zu erhalten, verwendet man 20 bis 25 Isolatoren je Wiederholung für Weizen und Tritikale, 10 bis 15 Isolatoren jeder Wiederholung für Roggen und Hirse.
Pflanzen von diploidem Roggen Kharkovskaya 55 werden in der V. Periode der Organogenese mit einer l%igen wäßrigen Emulsion von 1,1,3-Tribrompropan, 1,2,3-Tribrompropan, 1,2-Dibrompropan, 1,1,3-Tribrom-3-chlorpropan, 1,2--Dibrom-3-chlorpropan, 1,1,1,3-Tetrabromheptan, 1,1,3-Tribromheptan bzw. 1,2-Dibromheptan behandelt. Die Emulsion enthält 0,5 Masse% C12-C14-Kalziumalkylbenzolsulfonat und 0,01 Masse% Dimethylformamid als Adjuvans. Der Verbrauch an Präparat beträgt 6 kg/ha bei 600 1 Wasserdurchsatz. Die Prüfergebnisse sind in der Tabelle 13 angegeben. Die gleichen Ergebnisse sind bei der Behandlung von diploidem Roggen Kharkovskaya 55 in der VI. Periode der Organogenese erhalten.

[5] = test system: Hirse Sorte Mironovskoye 94; assay: Field test of gametocidal activity, millet Mironovskoye 94; assay type: in vivo; conditions: Mironovskoye 94, period V, 1% aqueous emulsion, 6 kg/ha in 600 l water
From the text: as §1, §2, §3, §4, §5
Pflanzen der Hirse Sorte Mironovskoye 94 werden in der V.Periode der Organogenese mit einer 1%igen wäßrigen Emulsion von 1,1,3-Tribrompropan, 1,2,3-Tribrompropan, 1,2-Dibrompropan, 1,2-Dibrom-3-chlorpropan, 1,3-Dibrompropan, 1,1,1,3-Tetrabromheptan, 1,1,3-Tribromheptan, 1,2-Dibromheptan behandelt. Die Emulsion enthält 0,5 Masse% C12-C14--Kalziumalkylbenzolaulfonat und 0,01 Masse% Dimethylsulfoxid als Adjuvans. Der Verbrauch an Präparat beträgt 6 kg/ha bei 600 1 Wasserdurchsatz. Die Prüfergebnisse sind in der Tabelle 15 angegeben. Die gleichen Ergebnisse sind bei der Behandlung der Hirse Sorte Mironovskoye 94 in der VI. Periode der Organogenese erhalten.

[6] = read-out: Prozentsatz der Sterilität

## CCCCC(Br)CC(Br)Br (centres unmarked) [Beispiel 10, 1,1,3-Tribromheptan]
[1]
  Kornzahl der Ähre bei freier Bestäubung: 40,0
  Kornzahl der Ähre im Isolator: 0,6
[1]; control = 100
  Prozentsatz des Ansetzens von Samen bei freier Bestäubung: 96,2%
[1]; read-out: Prozentsatz der Sterilität %
  pest or weed control at 1 %, 10000 g/ha: 98.4%
[2]
  Kornzahl der Ähre bei freier Bestäubung: 36,2
  Kornzahl der Ähre im Isolator: 0,1
[2]; control = 100
  Prozentsatz des Ansetzens von Samen bei freier Bestäubung: 94,7%
[2]; [6]
  percent sterility at 6000 g/ha: 99.8%
[3]
  Kornzahl der Ähre bei freier Bestäubung: 46,3
  Kornzahl der Ähre im Isolator: 0,3
[3]; control = 100
  Prozentsatz des Ansetzens von Samen bei freier Bestäubung: 92,4%
[3]; [6]
  percent sterility at 10000 g/ha: 99.4%
[4]
  Kornzahl der Ähre bei freier Bestäubung: 36,2
  Kornzahl der Ähre im Isolator: 0,1
[4]; control = 100
  Prozentsatz des Ansetzens von Samen bei freier Bestäubung: 97,8%
[4]; [6]
  percent sterility at 6000 g/ha: 99.8%
[5]
  Kornzahl der Rispe bei freier Bestäubung: 180,1
  Kornzahl der Rispe im Isolator: 0,0
[5]; control = 100
  Prozentsatz des Ansetzens von Samen bei freier Bestäubung: 73,6%
[5]; [6]
  percent sterility at 6000 g/ha: 100%
